Consider three compounds from ChEMBL document CHEMBL1128799, “Design and synthesis of a conformationally constrained analog of the bis(heteroaryl)piperazine (BHAP) HIV-1 reverse transcriptase inhibitor atevirdine” (Bioorg Med Chem Lett, 1995).

In assay [1] the test system is Human immunodeficiency virus 1. In words: Effective dose was evaluated for the inhibition of viral replication (PBMC). In kind it is functional. Conditions: read-out: ED50 (the source's name).
The target in assay [2] is Human immunodeficiency virus type 1 reverse transcriptase (Human immunodeficiency virus 1) (UniProt Q72547). As to the kind of experiment: Compound was tested in vitro for percent inhibition of HIV- I reverse transcriptase (RT) at dose 100 uM.

For orientation: inhibition means how much of the control response was suppressed. Lower therefore signals a response near the control.

Molecules are shown by their SMILES. pEC50: −log10 of the molar value. Structures can show the parent of a compound that is named as a salt.

In the case of `CC(C)Nc1cccnc1N1CCN(C(=O)c2cc3cc(NS(C)(=O)=O)ccc3[nH]2)CC1` [DELAVIRDINE MESYLATE], the pEC50 in assay [1] was 10.00.

Take `CCN1CC2(CCN(C(=O)c3cc4cc(NS(C)(=O)=O)ccc4[nH]3)CC2)c2ncccc21`: the inhibition in assay [2] was found to be 38%.

As to `CCNc1cccnc1N1CCN(C(=O)c2cc3cc(OC)ccc3[nH]2)CC1` [ATEVIRDINE SULPHATE], the pEC50 in assay [1] is 9.00.
